Measured values published in publication PMC5880945, “D-Arg^0-Bradykinin-Arg-Arg, a Latent Vasoactive Bradykinin B2 Receptor Agonist Metabolically Activated by Carboxypeptidases” (Frontiers in Pharmacology, 2018).
Entries after “also recorded” stand apart in the source; their conditions may differ. Read-outs that look alike come from different tables or passages of the source. Square brackets hold non-standard residues; d marks the D form. Peptide text beside a SMILES is read from it.

Experiments:
[1] = test system: B2R, human isolated umbilical vein; assay: Human umbilical vein contractility assay (bioassay for the endogenous B2R); details: for EC50: 95% confidence limits in parentheses, read-out: contractile EC50; for contractile potency, in words: human umbilical vein
Experimental: The institutional research ethics board (CHU de Québec) approved the anonymous use of human umbilical cord segments obtained after elective cesarean section deliveries (file number: 2012-323). Informed written consent was obtained from mothers. Umbilical vein rings, used as a contractile bioassay for the BK B2R, were prepared and suspended in organ baths and submitted to equilibration in Krebs’ solution as described ([Marceau et al., 1994]; [Gera et al., 2011]). The vascular preparation was used to assess the effect of the peptidase inhibitors (introduced 30 min before the agonist) on the apparent potency of r-BK and r-BK-RR. The full cumulative concentration-effect curves were recorded for each peptide; a large concentration of BK (9.4 μM) was added to record the maximal contractile effect mediated by the B2Rs for low potency agonists. Tissues were used only once and discarded; controls curves were obtained from other vascular rings from the same vein.
Results are presented as means ± SEM. Radioligand binding data were fitted by non-linear regression to a one-site competition equation using a least-square method (Prism 5.0, GraphPad Software Inc., San Diego, CA, United States) and IC50 values calculated from this procedure. The same computer program was used to draw concentration-effect curves generated with the contractility assay (least square fitting of sigmoidal dose-response equation with variable slope) and to derive contractile EC50 values. Data describing the dose-response relationship of novel peptides vs. hypotension and heart rate changes, the baseline values of heart rate and mean arterial blood pressure and the effect of drugs on the hemodynamic responses to r-B K and r-BK-RR were assessed by using one-way analysis of variance (ANOVA) followed by the Dunnett’s test (repeated comparison with a common control; Prism 5.0 software).

anesthetized rats = assay: In vivo hemodynamics in anesthetized rats pretreated with icatibant or peptidase inhibitors; design: species or system male Sprague-Dawley rats; details: 1.6 μg/kg i.v.; for hypotensive response after Plummer’s inhibitor, in words: Dunnett’s P < 0.05 (r-BK-RR); for heart rate response after enalaprilat + Plummer’s inhibitor, in words / duration of hypotensive episode after enalaprilat + Plummer’s inhibitor, in words / hypotensive response after enalaprilat + Plummer’s inhibitor, in words: enalaprilat 0.1 mg/kg + Plummer’s inhibitor 0.75 mg/kg i.v. 15 min before; for duration of hypotensive episode after enalaprilat + Plummer’s inhibitor, in words / hypotensive response after enalaprilat + Plummer’s inhibitor, in words: Dunnett’s P < 0.01 (r-BK); for hypotensive response after enalaprilat + Plummer’s inhibitor, in words: P < 0.05 (r-BK-RR); for duration of hypotensive episode after enalaprilat, in words: Dunnett’s P < 0.001 (r-BK-RR); for duration of residual hypotensive episode after icatibant, in words / heart rate response after icatibant, in words / hypotensive response after icatibant, in words: icatibant 75 μg/kg i.v. 15 min before; for hypotensive response after icatibant, in words: Dunnett’s P < 0.001 (r-BK), P < 0.01 (r-BK-RR)
Experimental: All surgical and experimental procedures were reviewed and approved by the Animal Care and Handling Committee of Laval University, in accordance with the Canadian Council on Animal Care. Experiments were performed on male Sprague-Dawley rats (300–375 g) purchased from Charles River Laboratories (St-Constant, QC, Canada). The rats were housed in a light-controlled (12:12-h light-dark cycle (lights on at 0600)) and temperature-regulated room (22 ± 1°C). Animals had free access to normal chow diet and tap water. They were allowed to acclimate to their environmental conditions for 1 week prior to being studied. At the end of the acclimation period, the rats were anesthetised with sodium pentobarbital (50 mg kg^-1, i.p., supplemented as required) and had one catheter implanted into the right jugular vein [for intravenous (i.v.) injection] and one into the left femoral artery [for direct and continuous measurement of blood pressure and heart rate as previously described ([Jean et al., 2016])]. Experiments started at least 20 min following the end of surgery in anesthetised rats.
The mechanism subserving the cardiovascular responses to random i.v. injections of r-BK and r-BK-RR at the dose of 1.6 μg/kg, was evaluated in rats pretreated with specific antagonists. In these experiments, the rats were separated in four groups depending on the antagonist tested, and the cardiovascular responses to the peptides agonists were compared with those elicited in the untreated control group of rats. In the first group of treated rats, the long acting and selective B2R antagonist, icatibant (Hoe 140) (D-Arg-[Hyp^3, Thi^5, D-Tic^7, Oic^8]) bradykinin ([Hock et al., 1991]; [Wirth et al., 1991]; [Rhaleb et al., 1992]; [Marceau et al., 1994]) was intravenously administered as bolus (75 μg/kg, 0.1 ml) following a 10 min period of baseline measurements of heart rate and blood pressure. Fifteen minutes later, recording changes in blood pressure and heart rate elicited by i.v. injection of peptide vehicle (saline-BSA 0.1%) followed by random injections of r-BK and r-BK-RR, were made as described above. The next peptide was administered once all recorded cardiovascular parameters had returned to baseline after the previous injection. Further experiments were made in a second group of rats pretreated with the ACE inhibitor, enalaprilat. In these experiments, enalaprilat was intravenously administered as bolus ([…], 0.1 ml) 15 min before the i.v. injections of peptide vehicle and both customized peptides, as above. Further experiments were also carried out in rats pretreated with the Plummer’s inhibitor (mercaptomethyl-3-guanidinoethylthiopropanoic acid) a high affinity inhibitor of arginine carboxypeptidases that is an arginine analog ([Plummer and Ryan, 1981]). The inhibitor was intravenously administered as bolus (0.75 mg/kg, 0.1 ml) followed 15 min later by the i.v. injections of saline-BSA 0.1%, and then r-BK and -r-BK-RR (1.6 μg/kg) in random order. A fourth group of rats was pretreated with a combined i.v. injection of enalaprilat (0.1 mg/kg) and the Plummer’s inhibitor (0.75 mg/kg) 15 min before the randomized i.v. injections of both customized peptides, as above. The doses of different inhibitors were based on preliminary experiments and from previous studies performed by us and others ([Ishida et al., 1989]; [Wirth et al., 1991]; [Muto et al., 2003]; [Jean et al., 2016]). At the end of the experiments the rats were euthanized with an overdose of sodium pentobarbital (240 mg/kg, i.v.).
Results are presented as means ± SEM. Radioligand binding data were fitted by non-linear regression to a one-site competition equation using a least-square method (Prism 5.0, GraphPad Software Inc., San Diego, CA, United States) and IC50 values calculated from this procedure. […]

[2] = + Plummer’s inhibitor 1 μM, 30 min before agonist
[3] = + enalaprilat 1 μM + Plummer’s inhibitor 1 μM, 30 min before agonist
[4] = + enalaprilat 1 μM, 30 min before agonist
[5] = Plummer’s inhibitor 0.75 mg/kg i.v. 15 min before
[6] = enalaprilat 0.1 mg/kg i.v. 15 min before
[7] = enalaprilat 0.1 mg/kg i.v. 15 min before, Dunnett’s P < 0.05 (r-BK)

N=C(N)NCCC[C@@H](N)C(=O)N[C@@H](CCCNC(=N)N)C(=O)N1CCC[C@H]1C(=O)N1CCC[C@H]1C(=O)NCC(=O)N[C@@H](Cc1ccccc1)C(=O)N[C@@H](CO)C(=O)N1CCC[C@H]1C(=O)N[C@@H](Cc1ccccc1)C(=O)N[C@@H](CCCNC(=N)N)C(=O)N[C@@H](CCCNC(=N)N)C(=O)N[C@@H](CCCNC(=N)N)C(=O)O [r-BK-RR, D-Arg^0-BK-Arg-Arg] (H-[dR]RPPGFSPFRRR-OH)
effect of combination Plummer’s inhibitor + enalaprilat vs. enalaprilat alone, in words ([1]; 1 μM each): not significantly more effective than enalaprilat alone | EC50 [1, 2]: 850 nM | EC50 [1, 3]: 1760 nM | EC50 [1, 4]: 1510 nM | effect of Plummer’s inhibitor on apparent contractile potency, in words ([1]; Plummer’s inhibitor 1 μM): only slightly decreased the apparent potency | EC50 ([1]; control (no inhibitor)): 431 nM | contractile potency, in words [1]: less potent than r-BK but more potent than anticipated from the radioligand binding competition assay | duration of hypotensive episode after Plummer’s inhibitor, in words (anesthetized rats; [5]): not different from those seen in untreated rats | heart rate (tachycardic) response after Plummer’s inhibitor, in words (anesthetized rats; [5]): not different from those seen in untreated rats | hypotensive response after Plummer’s inhibitor, in words (anesthetized rats; [5]): significantly reduce the hypotensive response | heart rate response after enalaprilat + Plummer’s inhibitor, in words (anesthetized rats): not different from those seen in untreated rats | duration of hypotensive episode after enalaprilat + Plummer’s inhibitor, in words (anesthetized rats): not different from those seen in untreated rats | hypotensive response after enalaprilat + Plummer’s inhibitor, in words (anesthetized rats): significantly reduce the hypotensive response | duration of hypotensive episode after enalaprilat, in words (anesthetized rats; [6]): significantly increase the duration of the hypotensive episode | hypotensive response after enalaprilat, in words (anesthetized rats; [7]): no significant effect on the hypotensive response | duration of residual hypotensive episode after icatibant, in words (anesthetized rats): not different from those of controls | heart rate response after icatibant, in words (anesthetized rats): not different from those of controls | hypotensive response after icatibant, in words (anesthetized rats): strongly reduce the hypotensive response

N=C(N)NCCC[C@@H](N)C(=O)N[C@@H](CCCNC(=N)N)C(=O)N1CCC[C@H]1C(=O)N1CCC[C@H]1C(=O)NCC(=O)N[C@@H](Cc1ccccc1)C(=O)N[C@@H](CO)C(=O)N1CCC[C@H]1C(=O)N[C@@H](Cc1ccccc1)C(=O)N[C@@H](CCCNC(=N)N)C(=O)O [r-BK, D-Arg^0-BK] (H-[dR]RPPGFSPFR-OH)
EC50 [1, 2]: 68.4 nM | EC50 [1, 3]: 45.1 nM | EC50 [1, 4]: 61.6 nM | EC50 ([1]; control (no inhibitor)): 62.4 nM | effect of enalaprilat and/or Plummer’s inhibitor on contractile response, in words ([1]; enalaprilat and/or Plummer’s inhibitor, 1 μM each): essentially unaffected; also recorded: enalaprilat failed to potentiate r-BK | contractile potency, in words [1]: potent contractile agent | heart rate (tachycardic) response after Plummer’s inhibitor, in words (anesthetized rats; [5]): no effect | hypotensive response after Plummer’s inhibitor, in words (anesthetized rats; [5]): no effect | heart rate response after enalaprilat + Plummer’s inhibitor, in words (anesthetized rats): not different from that seen in untreated rats | duration of hypotensive episode after enalaprilat + Plummer’s inhibitor, in words (anesthetized rats): significantly potentiated | hypotensive response after enalaprilat + Plummer’s inhibitor, in words (anesthetized rats): significantly potentiated | duration of hypotensive episode after enalaprilat, in words (anesthetized rats; [6]): not different from that seen in untreated rats | hypotensive response after enalaprilat, in words (anesthetized rats; [7]): significantly potentiated | tachycardic response after enalaprilat, in words (anesthetized rats; [7]): significantly potentiated (P < 0.05, Dunnett’s test) as was the tachycardic response | duration of residual hypotensive episode after icatibant, in words (anesthetized rats): comparable to those seen in the untreated group | heart rate response after icatibant, in words (anesthetized rats): comparable to those seen in the untreated group | hypotensive response after icatibant, in words (anesthetized rats): significantly inhibited
